Measured values from US7989496B2, “Transdermal delivery of ketoprofen polar derivatives” (Noven Pharmaceuticals, Inc., priority 2006, dated 2011).

Assay: Human cadaver skin permeation study in modified Franz diffusion cells
Settings: for 72 hr Cumulative Permeation: drug-in-adhesive formulation, human cadaver stratum corneum, Franz cells, 32° C.; for delivery rate (average flux through cadaver skin), FIG. 2: ketoprofen, polar and non-polar derivatives; for transdermal delivery rate compared with ketoprofen: previous work by the inventor on non-polar ketoprofen derivatives

## CC(C(=O)OCC(O)CO)c1cccc(C(=O)c2ccccc2)c1 (stereo not shown) [Ketoprofen Monoglycerol Ester]
  72 hr Cumulative Permeation: 214 µg/cm²
Cadaver skin in Franz cells
  delivery rate (average flux through cadaver skin), FIG. 2: faster delivery rate than each of the non-polar ester derivatives tested

## CC(C)OC(=O)C(C)c1cccc(C(=O)c2ccccc2)c1 (stereo not shown) [Ketoprofen Isopropyl Ester]
  72 hr Cumulative Permeation: 61.2 µg/cm²
  transdermal delivery rate compared with ketoprofen: lower delivery rates than ketoprofen

## CCOC(=O)C(C)c1cccc(C(=O)c2ccccc2)c1 (stereo not shown) [Ketoprofen Ethyl Ester]
  72 hr Cumulative Permeation: 170 µg/cm²
  transdermal delivery rate compared with ketoprofen: lower delivery rates than ketoprofen

## CC(C(=O)O)c1cccc(C(=O)c2ccccc2)c1 (stereo not shown) [Ketoprofen, 2-(3-benzoyl-phenyl)-propionic acid]
Cadaver skin in Franz cells
  delivery rate (average flux through cadaver skin), FIG. 2: highest delivery rate
Over 72 hours
  skin permeation over 72 hours: about 1110 μg/cm^2

## COC(=O)C(C)c1cccc(C(=O)c2ccccc2)c1 (stereo not shown) [methyl ester of ketoprofen]
non-polar ketoprofen derivatives, approximate 84 hour time period, cadaver skin in Franz cells
  delivery rate (average flux through cadaver skin), FIG. 1: faster delivery rate than each of the ethyl ester and isopropyl ester
  transdermal delivery rate compared with ketoprofen: lower delivery rates than ketoprofen
